Measurements from patent US8889591B2, “Herbicidal compositions comprising 4-amino-3-chloro-5-fluoro-6-(4-chloro-2-fluoro-3-methoxyphenyl)pyridine-2-carboxylic acid or a derivative thereof and bromobutide, daimuron, oxaziclomefone or pyributicarb” (Dow Agrosciences LLC, priority 2012, dated 2014).

What was measured:
IPOHE = assay: Postemergence foliar-applied greenhouse weed control, direct-seeded rice system; assay type: in vivo, Ipomoea hederacea Jacq.
Source text: Seeds or nutlets of the desired test plant species were planted in a soil matrix prepared by mixing a loam or sandy loam soil (e.g., 28.6 percent silt, 18.8 percent clay, and 52.6 percent sand, with a pH of about 5.8 and an organic matter content of about 1.8 percent) and calcareous grit in an 80 to 20 ratio. The soil matrix was contained in plastic pots with a volume of 1 quart and a surface area of 83.6 square centimeters (cm^2). When required to ensure good germination and healthy plants, a fungicide treatment and/or other chemical or physical treatment was applied. The plants were grown for 8-22 days in a greenhouse with an approximate 14 h photoperiod which was maintained at about 29° C. during the day and 26° C. during the night. Nutrients (Peters Excel® 15-5-15 5-Ca 2-Mg and iron chelate) were applied in the irrigation solution as needed and water was added on a regular basis. Supplemental lighting was provided with overhead metal halide 1000-Watt lamps as necessary. The plants were employed for testing when they reached the first through fourth true leaf stage.
Treatments consisted of the acid or esters of 4-amino-3-chloro-5-fluoro-6-(4-chloro-2-fluoro-3-methoxy-phenyl)pyridine-2-carboxylic acid (Compound A), each formulated as an SC (suspension concentrate), and various herbicidal components alone and in combination. Forms of compound A were applied on an acid equivalent basis.
Other herbicidal components were applied on an active ingredient basis and included diamuron formulated as an EC (emulsifiable concentrate) and oxaziclomefone (technical grade material).
Treatment requirements were calculated based upon the rates being tested, the concentration of active ingredient or acid equivalent in the formulation, and a 12 mL application volume at a rate of 187 L/ha.
For treatments comprised of formulated compounds, measured amounts of compounds were placed individually in 25 mL glass vials and diluted in a volume of 1.25% (v/v) Agri-Dex® crop oil concentrated to obtain 12× stock solutions. […] Application solutions were prepared by adding an appropriate amount of each stock solution (e.g., 1 mL) and diluted to the appropriate final concentrations with the addition of 10 mL of an aqueous mixture of 1.25% (v/v) crop oil concentrate so that the final spray solutions contained 1.25+/−0.05% (v/v) crop oil concentrate.
For treatments comprised of technical compounds, weighed amounts can be placed individually in 25 mL glass vials and dissolved in a volume of 97:3 v/v acetone/DMSO to obtain 12× stock solutions. […] Application solutions can be prepared by adding an appropriate amount of each stock solution (e.g., 1 mL) and diluted to the appropriate final concentrations with the addition of 10 mL of an aqueous mixture of 1.5% (v/v) crop oil concentrate so that the final spray solutions contain 1.25% (v/v) crop oil concentrate. When technical materials are used, the concentrated stock solutions can be added to the spray solutions so that the final acetone and DMSO concentrations of the application solutions are 16.2% and 0.5%, respectively.
For treatments comprised of formulated and technical compounds, weighed amounts of the technical materials were placed individually in 25 mL glass vials and dissolved in a volume of 97:3 v/v acetone/DMSO to obtain 12× stock solutions, and measured amounts of the formulated compounds were placed individually in 25 mL glass vials and diluted in a volume of 1.5% (v/v) crop oil concentrate or water to obtain 12× stock solutions. […] Application solutions were prepared by adding an appropriate amount of each stock solution (e.g., 1 mL) and diluted to the appropriate final concentrations with the addition of an appropriate amount of an aqueous mixture of 1.5% (v/v) crop oil concentrate so that the final spray solutions contained 1.25% (v/v) crop oil concentrate. […]

ECHCG = assay: In-water applied greenhouse weed control, transplanted paddy rice system; assay type: in vivo, Echinochloa crusgalli (L.) Beauv.; settings: in-water application
Experimental: Weed seeds or nutlets of the desired test plant species were planted in puddled soil (mud) prepared by mixing a shredded, non-sterilized mineral soil (50.5 percent silt, 25.5 percent clay, and 24 percent sand, with a pH of about 7.6 and an organic matter content of about 2.9 percent) and water at a 1:1 volumetric ratio. The prepared mud was dispensed in 365 mL aliquots into 16-ounce (oz.) non-perforated plastic pots with a surface area of 86.59 square centimeters (cm^2) leaving a headspace of 3 centimeters (cm) in each pot. Mud was allowed to dry overnight prior to planting or transplanting. Rice seeds were planted in Sun Gro MetroMix® 306 planting mixture, which typically has a pH of 6.0 to 6.8 and an organic matter content of about 30 percent, in plastic plug trays. Seedlings at the second or third leaf stage of growth were transplanted into 840 mL of mud contained in 32-oz. non-perforated plastic pots with a surface area of 86.59 cm^2 4 days prior to herbicide application. The paddy was created by filling the headspace of the pots with 2.5 to 3 cm of water. […]
Treatment requirements for each compound or herbicidal component were calculated based upon the rates being tested, the concentration of active ingredient or acid equivalent in the formulation, an application volume of 2 mL per component per pot, and an application area of 86.59 cm^2 per pot.
For formulated compounds, a measured amount was placed in an individual 100 or 200 mL glass vial and was dissolved in a volume of 1.25% (v/v) Agri-Dex® crop oil concentrate to obtain application solutions. […]
The treated plants and control plants were placed in a greenhouse as described above and water was added as needed to maintain a paddy flood. After approximately 3 weeks the condition of the test plants as compared with that of the untreated plants was determined visually and scored on a scale of 0 to 100 percent where 0 corresponds to no injury or growth inhibition and 100 corresponds to complete kill. […]

[1] = Compound A Benzyl Ester 4.38 gae/ha alone
[2] = Compound A Benzyl Ester 8.75 gae/ha alone

In the case of `COc1c(Cl)ccc(-c2nc(C(=O)OCc3ccccc3)c(Cl)c(N)c2F)c1F` [Compound A Benzyl Ester], the “Visual Weed Control (%) - 20 DAA IPOHE Obs” value (IPOHE; [1]) is reported as 10%, the “Visual Weed Control (%) - 20 DAA IPOHE Obs” value (IPOHE; [2]) is reported as 25% and the “Visual Weed Control (%) - 20 DAA IPOHE Obs” value (IPOHE; Compound A Benzyl Ester 17.5 gae/ha alone) is reported as 50%. The “Visual Weed Control (%) - 21 DAA ECHCG Obs” value (ECHCG; [1]) was 40% and the “Visual Weed Control (%) - 21 DAA ECHCG Obs” value (ECHCG; [2]) was 50%.
